Measured values: patent publication US20220305013A1, “STABLE COLLOIDAL DRUG AGGREGATES AND METHODS OF MANUFACTURE AND USE THEREOF” (THE GOVERNING COUNCIL OF THE UNIVERSITY OF TORONTO, priority 2019, published 2022)

Tests used:
[1] = Critical aggregation concentration (CAC) by dynamic light scattering in pH-adjusted PBS; type: physicochemical; conditions: for critical aggregation concentration (CAC) as a function of pH: pH 7.4 vs 5.5, DLS; for CAC over a range of pH values: DLS
Method: CAC values are calculated by preparing colloidal formulations with different concentrations and measuring the scattering intensity (or fluorescence intensity when appropriate). The data is then fit to Equation S4, which was derived from first principles (Equations S1-S3), using the MATLAB curve fitting toolbox to obtain the critical aggregation concentration (CAC) under the conditions used.
Colloids were formulated as described in Example 1. […] 100 μL of each sample was analyzed by DLS and the CAC's calculated as described in Example 1.
Colloids were formulated as described in Example 1. Briefly, solutions of fulvestrant analogue in DMSO were prepared at various concentrations and then diluted 100-fold with PBS at different […]. 100 μL of each sample was analyzed by DLS and the CAC's calculated as described in Example 1.
Colloids were formulated as described in Example 1. Briefly, solutions of siramesine in DMSO were prepared at various concentrations and then diluted 100-fold with pH-adjusted PBS containing stabilizer (where applicable). 100 μL of each sample was analyzed by DLS and the CACs calculated as described in Example 1.

[2] = Drug release from colloids (centrifugation, drug in supernatant by HPLC-MS-MS); type: physicochemical; conditions: for amount of drug released from co-colloids as a function of pH / drug release over time after acidification to pH 5.5: 12.5 μM lapatinib, 37.5 μM fulvestrant, 0.01 mg/mL PLAC-PEG in PBS
Method: Drug release was measured by centrifuging to pellet the colloids, and then by quantifying the drug in the supernatant. Colloid formulations were centrifuged at 16,000×g for 1 h, followed by withdrawal of 100 μL for quantification. Another 100 μL was withdrawn for DLS analysis to confirm that the colloids had completely settled out of solution. Non-centrifuged colloid suspensions were used as controls.
Drug concentration in samples from drug release and membrane permeability assays was quantified by high pressure liquid chromatography coupled with tandem mass spectrometry (HPLC-MS-MS). Protein was precipitated from samples in serum containing media by spiking with 10 μL of formic acid and adding acetonitrile to a final volume of 1 mL. The precipitated samples were then centrifuged at 16,000×g for 5 min to pellet the proteins. The drug-containing supernatant was then diluted in methanol such that the final drug concentration was less than 100 ng mL^−1. During the final dilution, internal standards (nilotinib for lapatinib and norethindrone for fulvestrant) were added to a final concentration of 25 ng/mL each. Standard curves were prepared in a similar way, by diluting 100 mM solutions of drug in DMSO with methanol to final concentrations of 100, 75, 50, 25, 10, 5, 2.5, and 1 ng mL^−1, each with 25 ng mL^−1 of internal standard.

Zeta potential = type: physicochemical; conditions: 0.1 mM KCl
Method: Colloids were prepared as described above, but with a single addition of 0.1 mM KCl solution instead of water and buffer. Zeta potential was immediately assessed using a Malvern Nano-ZS (Malvern Panalytical).

[3] = Membrane permeability assay; type: in vitro ADME; conditions: co-colloids 50 μM lapatinib, 150 μM fulvestrant, 0.04 mg/mL PLAC-PEG, 10% FBS, 6 h, 37° C., acidified vs not
Method: Supported artificial lipid membranes were prepared according to the manufacturer instructions (EMD Millipore cat #MATRNPS50). Briefly, a 1% (w/w) solution of egg lecithin in dodecane was prepared by sonicating until the solution was no longer cloudy. A 5 μL aliquot of this phospholipid solution was dropped by pipette into each well of the mesh plate, which wet the membrane and caused it to become translucent. Receiver solution was prepared as 1% (v/v) DMSO and 10% (v/v) FBS in PBS and 340 μL was pipetted into each well of the receiver plate. Lapatinib and fulvestrant solutions ranging from 0 to 5 μM for constructing the standard curve were prepared in identical media and pipetted into separate wells of the receiver plate. Colloids were prepared in PBS containing 10% (v/v) FBS as described above, and 150 μL was pipetted into the mesh plate wells corresponding to the receiver solution in the receiver plate. The mesh plate and receiver plate were gently mated, resulting in the receiver solution wetting the bottom of the phospholipid membrane. […] Finally, the stack was carefully disassembled and a 200 μL sample of receiver and standard curve solutions was withdrawn for drug quantification as described below. […]
Drug concentration in samples from drug release and membrane permeability assays was quantified by high pressure liquid chromatography coupled with tandem mass spectrometry (HPLC-MS-MS). […]

[4] = Acid responsiveness of colloids prepared at different pH (spun down, absorbance); type: physicochemical; conditions: with or without Herceptin as stabilizing agent
Method: The colloids were prepared in different pH conditions, spun down, extracted from the supernatant by organic solvent, dried, reconstituted in DMSO and measured for absorbance.

| Structure (SMILES) | critical aggregation concentration (CAC) as a function of pH [1] | CAC over a range of pH values [1] | amount of drug released from co-colloids as a function of pH [2] | drug release over time after acidification to pH 5.5 [2] | zeta potential (surface charge) (Zeta potential) | ionization state of released lapatinib ([2]; calculated by acid-base theory from release data, low pH) | transmembrane diffusion [3] | acid responsiveness of colloidal drug aggregate [4] |
| --- | --- | --- | --- | --- | --- | --- | --- | --- |
| Clc1ccccc1C(c1ccccc1)(c1ccccc1)n1ccnc1 [clotrimazole] | pH-dependent CACs |  |  |  |  |  |  |  |
| C[C@]12CC[C@@H]3c4ccc(O)cc4C[C@@H](CCCCCCCCC[S+]([O-])CCCC(F)(F)C(F)(F)F)[C@H]3[C@@H]1CC[C@@H]2O (stereo partly drawn) [fulvestrant] | did not dissolve on acidification | No change in CAC values | unaffected by pH | remained unresponsive to acid | negative zeta potential |  |  |  |
| CS(=O)(=O)CCNCc1ccc(-c2ccc3ncnc(Nc4ccc(OCc5cccc(F)c5)c(Cl)c4)c3c2)o1 [lapatinib] | pH-dependent CACs |  | increased with increasing acidity | rapidly reached an equilibrium that was sustained for 24 h |  | Most lapatinib that is released at low pH is ionized | reduced when the colloids were acidified |  |
| Fc1ccc(-n2cc(CCCCN3CCC4(CC3)OCc3ccccc34)c3ccccc32)cc1 [siramesine] |  | increase in CAC values |  |  |  |  |  |  |
| CNC(=O)c1cc(Oc2ccc(NC(=O)Nc3ccc(Cl)c(C(F)(F)F)c3)cc2)ccn1 [sorafenib] | did not dissolve on acidification | not pH-dependent |  |  |  |  |  | did not demonstrate acid responsiveness |
